Measurements as given in patent publication US7745495B2, “Pyridine ketones with herbicidal effect” (Syngenta Crop Protection, Inc., priority 2004, dated 2010).

Tests used:
Stellaria [1] = experiment: Pre-emergence herbicidal action; type: in vivo; details: 250 g/ha; after 3 weeks; rating 10=total damage, 0=no action
Procedure: (§1) Monocotyledonous and dicotyledonous test plants are sown in standard soil in plastic pots. Immediately after sowing, the test compounds, in the form of an aqueous suspension (prepared from a 25% wettable powder (Example F3, b) according to WO 97/34485) or in the form of an emulsion (prepared from a 25% emulsifiable concentrate (Example F1, c)), are applied by spraying a concentration corresponding to 125 g or 250 g of active ingredient/ha (500 liter of water/ha). The test plants are then grown in a greenhouse under optimum conditions. After a test duration of 3 weeks, the test is evaluated in accordance with a scale of ten ratings (10=total damage, 0=no action). Ratings of from 10 to 7 (especially from 10 to 8) indicate good to very good herbicidal action.

Chenopodium [2] = experiment: Pre-emergence herbicidal action; type: in vivo; details: 250 g/ha; after 3 weeks; rating 10=total damage, 0=no action
Procedure: as §1

Soya = experiment: Pre-emergent herbicidal activity on crop plant; type: in vivo; details: crop plant, rating 10=total damage, 0=no action; for Pre-emergent Herbicidal Activity: Soja: Table B5; for Pre-emergent Herbicidal Activity: Soya: Table B4
Procedure: (§2) Monocotyledonous and dicotyledonous test plants are sown in standard soil in plastic pots. […] The test plants are then grown in a greenhouse under optimum conditions. After a test duration of 3 weeks, the test is evaluated in accordance with a scale of ten ratings (10=total damage, 0=no action). Ratings of from 10 to 7 (especially from 10 to 8) indicate good to very good herbicidal action.
(§3) In the following Table B3, the pre-emergent herbicidal activity of compound H-14 according to the invention is compared with 4 compounds according to the prior art. All compounds are structurally identical except for the nature of the alkylene linker attached to the pyridine ring.

Corn = experiment: Pre-emergent herbicidal activity on crop plant; type: in vivo; details: crop plant, rating 10=total damage, 0=no action; for Pre-emergent Herbicidal Activity: Mais: Table B5; for Pre-emergent Herbicidal Activity: Corn: Table B4
Procedure: as §2, §3

Digitaria [3] = experiment: Post-emergence herbicidal action; type: in vivo; details: 250 g/ha; 4- to 6-leaf stage; after about 18 days; rating 10=total damage, 0=no action
Procedure: (§4) In a greenhouse, monocotyledonous and dicotyledonous test plants are grown in standard soil in plastic pots and at the 4- to 6-leaf stage are sprayed with an aqueous suspension of the test compounds of formula I prepared from a 25% wettable powder (Example F3, b) according to WO 97/34485) or with an emulsion of the test compounds of formula I prepared from a 25% emulsifiable concentrate (Example F1, c) according to WO 97/34485), in a concentration corresponding to 125 g or 250 g of active ingredient/ha (500 liter of water/ha). The test plants are then grown on in a greenhouse under optimum conditions. After a test duration of about 18 days, the test is evaluated in accordance with a scale of ten ratings (10=total damage, 0=no action). Ratings of from 10 to 7 (especially from 10 to 8) indicate good to very good herbicidal action.

Sinapis = experiment: Post-emergence herbicidal action; type: in vivo; details: 250 g/ha; 4- to 6-leaf stage; after about 18 days; rating 10=total damage, 0=no action
Procedure: as §4

Panicum [4] = experiment: Post-emergence herbicidal action; type: in vivo; details: 250 g/ha; 4- to 6-leaf stage; after about 18 days; rating 10=total damage, 0=no action
Procedure: as §4

Stellaria [5] = experiment: Post-emergence herbicidal action; type: in vivo; details: 250 g/ha; 4- to 6-leaf stage; after about 18 days; rating 10=total damage, 0=no action
Procedure: as §4

Ipomea = experiment: Post-emergence herbicidal action; type: in vivo; details: 250 g/ha; 4- to 6-leaf stage; after about 18 days; rating 10=total damage, 0=no action
Procedure: as §4

Setaria = experiment: Post-emergence herbicidal action; type: in vivo; details: 250 g/ha; 4- to 6-leaf stage; after about 18 days; rating 10=total damage, 0=no action
Procedure: as §4

Abutilon [6] = experiment: Post-emergence herbicidal action; type: in vivo; details: 250 g/ha; 4- to 6-leaf stage; after about 18 days; rating 10=total damage, 0=no action
Procedure: as §4

Chenopodium [7] = experiment: Post-emergence herbicidal action; type: in vivo; details: 250 g/ha; 4- to 6-leaf stage; after about 18 days; rating 10=total damage, 0=no action
Procedure: as §4

Digitaria [8] = experiment: Pre-emergence herbicidal action; type: in vivo; details: rating 10=total damage, 0=no action; for Pre-emergence herbicidal action: Digitaria: 250 g/ha, after 3 weeks
Procedure: as §2

Amaranthus = experiment: Pre-emergence herbicidal action; type: in vivo; details: rating 10=total damage, 0=no action; for Pre-emergence herbicidal action: Amaranthus: 250 g/ha, after 3 weeks
Procedure: as §2

Panicum [9] = experiment: Pre-emergence herbicidal action; type: in vivo; details: rating 10=total damage, 0=no action; for Pre-emergence herbicidal action: Panicum: 250 g/ha, after 3 weeks; for Pre-emergent Herbicidal Activity: Panicum: Table B4
Procedure: as §2

Echinochloa = experiment: Pre-emergence herbicidal action; type: in vivo; details: rating 10=total damage, 0=no action; for Pre-emergence herbicidal action: Echinochloa: 250 g/ha, after 3 weeks
Procedure: as §2

Abutilon [10] = experiment: Pre-emergence herbicidal action; type: in vivo; details: rating 10=total damage, 0=no action; for Pre-emergence herbicidal action: Abutilon: 250 g/ha, after 3 weeks
Procedure: as §2

Brachiaria = experiment: Pre-emergent herbicidal activity; type: in vivo; details: Table B5, rating 10=total damage, 0=no action
Procedure: as §2, §3

Scirpus = experiment: Pre-emergent herbicidal activity; type: in vivo; details: Table B5, rating 10=total damage, 0=no action
Procedure: as §2
In the following Table B5, the pre-emergent herbicidal activity of compound H-9 according to the invention is compared with compound E according to the prior art. Both compounds are structurally identical except for the length of the alkylene linker attached to the pyridine ring.

Xanthium = experiment: Pre-emergent herbicidal activity; type: in vivo; details: Table B4, rating 10=total damage, 0=no action
Procedure: as §2
In the following Table B4, the pre-emergent herbicidal activity of compound H-3 according to the invention is compared with compound D according to the prior art. Both compounds are structurally identical except for the length of the alkylene linker attached to the pyridine ring.

In the case of COCCCc1nc(C(F)(F)Cl)ccc1C(=O)C1C(=O)C2CCC(C2)C1=O (stereo not drawn) [Compound H-9], the “Pre-emergence herbicidal action: Stellaria” value (Stellaria [1]) is reported as 7, the “Pre-emergence herbicidal action: Chenopodium” value (Chenopodium [2]) is reported as 9 and the “Pre-emergent Herbicidal Activity: Soja” value (Soya; 30 g/ha) is reported as 0. For the same compound, the “Pre-emergent Herbicidal Activity: Soja” value (Soya; 60 g/ha) was 1, the “Pre-emergent Herbicidal Activity: Mais” value (Corn; 30 g/ha) was 0 and the “Pre-emergent Herbicidal Activity: Mais” value (Corn; 60 g/ha) was 1. For the same compound, the “Post-emergence herbicidal action: Digitaria” value (Digitaria [3]) was 9, the “Post-emergence herbicidal action: Sinapis” value (Sinapis) was 7 and the “Post-emergence herbicidal action: Panicum” value (Panicum [4]) was 9. For the same compound, the “Post-emergence herbicidal action: Stellaria” value (Stellaria [5]) was 8, the “Post-emergence herbicidal action: Ipomea” value (Ipomea) was 9 and the “Post-emergence herbicidal action: Setaria” value (Setaria) was 9. The “Post-emergence herbicidal action: Abutilon” value (Abutilon [6]) was 9, the “Post-emergence herbicidal action: Chenopodium” value (Chenopodium [7]) was 9 and the “Pre-emergence herbicidal action: Digitaria” value (Digitaria [8]) was 10. The “Pre-emergent Herbicidal Activity: Digitaria” value (Digitaria [8]; Table B5, 30 g/ha) was 8, the “Pre-emergent Herbicidal Activity: Digitaria” value (Digitaria [8]; Table B5, 60 g/ha) was 9 and the “Pre-emergence herbicidal action: Amaranthus” value (Amaranthus) was 9. For the same compound, the “Pre-emergent Herbicidal Activity: Amaranthus” value (Amaranthus; Table B5, 30 g/ha) was 8, the “Pre-emergent Herbicidal Activity: Amaranthus” value (Amaranthus; Table B5, 60 g/ha) was 8 and the “Pre-emergence herbicidal action: Panicum” value (Panicum [9]) was 10. The “Pre-emergence herbicidal action: Echinochloa” value (Echinochloa) was 10, the “Pre-emergent Herbicidal Activity: Echinochloa” value (Echinochloa; Table B5, 30 g/ha) was 9 and the “Pre-emergent Herbicidal Activity: Echinochloa” value (Echinochloa; Table B5, 60 g/ha) was 10. The “Pre-emergence herbicidal action: Abutilon” value (Abutilon [10]) was 10, the “Pre-emergent Herbicidal Activity: Abutilon” value (Abutilon [10]; Table B5, 30 g/ha) was 8 and the “Pre-emergent Herbicidal Activity: Abutilon” value (Abutilon [10]; Table B5, 60 g/ha) was 9. The “Pre-emergent Herbicidal Activity: Brachiaria” value (Brachiaria; 30 g/ha) was 9, the “Pre-emergent Herbicidal Activity: Brachiaria” value (Brachiaria; 60 g/ha) was 9 and the “Pre-emergent Herbicidal Activity: Scirpus” value (Scirpus; 30 g/ha) was 10. For the same compound, the “Pre-emergent Herbicidal Activity: Scirpus” value (Scirpus; 60 g/ha) was 10.
With COCCCc1nc(C(F)F)ccc1C(=O)C1C(=O)C2CCC(C2)C1=O (stereo not drawn) [Compound H-3, 3-[6-Difluoromethyl-2-(3-methoxy-propyl)-pyridine-3-carbonyl]-bicyclo[3.2.1]octane-2,4-dione] the “Pre-emergence herbicidal action: Stellaria” value (Stellaria [1]) was 8, the “Pre-emergence herbicidal action: Chenopodium” value (Chenopodium [2]) was 10 and the “Pre-emergent Herbicidal Activity: Xanthium” value (Xanthium; 30 g/ha) was 7. For the same compound, the “Pre-emergent Herbicidal Activity: Xanthium” value (Xanthium; 60 g/ha) was 7, the “Pre-emergent Herbicidal Activity: Soya” value (Soya; 30 g/ha) was 0 and the “Pre-emergent Herbicidal Activity: Soya” value (Soya; 60 g/ha) was 0. For the same compound, the “Pre-emergent Herbicidal Activity: Corn” value (Corn; 30 g/ha) was 0, the “Pre-emergent Herbicidal Activity: Corn” value (Corn; 60 g/ha) was 0 and the “Post-emergence herbicidal action: Digitaria” value (Digitaria [3]) was 9. For the same compound, the “Post-emergence herbicidal action: Sinapis” value (Sinapis) was 9, the “Post-emergence herbicidal action: Panicum” value (Panicum [4]) was 10 and the “Post-emergence herbicidal action: Stellaria” value (Stellaria [5]) was 9. The “Post-emergence herbicidal action: Ipomea” value (Ipomea) was 8, the “Post-emergence herbicidal action: Setaria” value (Setaria) was 9 and the “Post-emergence herbicidal action: Abutilon” value (Abutilon [6]) was 9. For the same compound, the “Post-emergence herbicidal action: Chenopodium” value (Chenopodium [7]) was 10, the “Pre-emergence herbicidal action: Digitaria” value (Digitaria [8]) was 10 and the “Pre-emergent Herbicidal Activity: Digitaria” value (Digitaria [8]; Table B4, 30 g/ha) was 9. For the same compound, the “Pre-emergent Herbicidal Activity: Digitaria” value (Digitaria [8]; Table B4, 60 g/ha) was 9, the “Pre-emergence herbicidal action: Amaranthus” value (Amaranthus) was 10 and the “Pre-emergent Herbicidal Activity: Amaranthus” value (Amaranthus; Table B4, 30 g/ha) was 9. For the same compound, the “Pre-emergent Herbicidal Activity: Amaranthus” value (Amaranthus; Table B4, 60 g/ha) was 10, the “Pre-emergence herbicidal action: Panicum” value (Panicum [9]) was 10 and the “Pre-emergent Herbicidal Activity: Panicum” value (Panicum [9]; 30 g/ha) was 10. The “Pre-emergent Herbicidal Activity: Panicum” value (Panicum [9]; 60 g/ha) was 10, the “Pre-emergence herbicidal action: Echinochloa” value (Echinochloa) was 10 and the “Pre-emergent Herbicidal Activity: Echinochloa” value (Echinochloa; Table B4, 30 g/ha) was 10. For the same compound, the “Pre-emergent Herbicidal Activity: Echinochloa” value (Echinochloa; Table B4, 60 g/ha) was 10, the “Pre-emergence herbicidal action: Abutilon” value (Abutilon [10]) was 10 and the “Pre-emergent Herbicidal Activity: Abutilon” value (Abutilon [10]; Table B4, 30 g/ha) was 9. The “Pre-emergent Herbicidal Activity: Abutilon” value (Abutilon [10]; Table B4, 60 g/ha) was 10 and the melting point was 45 to 46 °C.
